# Measurements from US20170281611A1, “QUINOLINES AND THEIR USE FOR TREATING ENDOPLASMIC RETICULUM STRESS-CAUSED DISEASES” (EIGER BIOPHARMACEUTICALS, INC., priority 2014, published 2017).
# Where two headings read alike, the source gives them in different places.
# Legend:
# SERCA, cardiac SR = molecular target: T1, SERCA, cardiac SR; experiment: Activation of SERCA, NADH-linked enzyme-coupled ATPase assay, cardiac SR; format: biochemical; details: read-out: CSR EC50
# T1 construct: 2 mg or 7 mg of SR vesicles (optimized for skeletal or cardiac SR, respectively); from tissue; host or cells: cardiac sarcoplasmic reticulum vesicles
# T1 sequence (P16615 1-997 isoform P16615-2): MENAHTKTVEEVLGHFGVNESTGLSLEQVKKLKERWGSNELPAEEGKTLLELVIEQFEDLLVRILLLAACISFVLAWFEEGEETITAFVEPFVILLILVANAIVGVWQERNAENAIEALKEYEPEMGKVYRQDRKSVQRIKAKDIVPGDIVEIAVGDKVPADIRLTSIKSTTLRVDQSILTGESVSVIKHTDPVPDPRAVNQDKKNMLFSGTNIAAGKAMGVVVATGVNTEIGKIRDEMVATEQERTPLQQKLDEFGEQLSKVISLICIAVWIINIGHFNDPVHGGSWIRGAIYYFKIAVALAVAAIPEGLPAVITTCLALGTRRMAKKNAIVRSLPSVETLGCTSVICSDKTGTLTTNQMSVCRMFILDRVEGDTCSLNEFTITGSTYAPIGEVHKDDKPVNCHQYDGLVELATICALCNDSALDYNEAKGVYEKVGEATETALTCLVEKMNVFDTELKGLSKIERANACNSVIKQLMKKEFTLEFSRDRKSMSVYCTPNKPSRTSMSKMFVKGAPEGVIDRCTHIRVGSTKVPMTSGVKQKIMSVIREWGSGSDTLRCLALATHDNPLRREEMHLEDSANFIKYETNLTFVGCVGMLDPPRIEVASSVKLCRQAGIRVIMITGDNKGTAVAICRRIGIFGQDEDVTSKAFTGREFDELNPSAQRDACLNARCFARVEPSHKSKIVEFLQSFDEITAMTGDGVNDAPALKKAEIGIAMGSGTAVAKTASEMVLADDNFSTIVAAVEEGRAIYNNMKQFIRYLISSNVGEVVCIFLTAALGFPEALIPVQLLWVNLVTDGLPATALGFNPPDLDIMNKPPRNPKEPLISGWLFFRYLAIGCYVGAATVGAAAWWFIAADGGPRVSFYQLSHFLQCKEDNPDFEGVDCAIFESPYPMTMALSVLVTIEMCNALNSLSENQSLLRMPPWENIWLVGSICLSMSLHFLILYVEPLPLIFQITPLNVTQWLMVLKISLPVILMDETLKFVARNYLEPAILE
# Experimental: Test compounds were characterized over a range of concentrations using an NADH-linked, enzyme-coupled ATPase assay. Each well contained 2 mg or 7 mg of SR vesicles (optimized for skeletal or cardiac SR, respectively), 50 mM MOPS (pH 7.0), 100 mM KCl, 5 mM MgCl2, 1 mM EGTA, 0.2 mM NADH, 1 mM phosphoenol pyruvate, 5 IU pyruvate kinase, 5 IU lactate dehydrogenase, and 3.5 mg/mL A23187 (a calcium ionophore), and CaCl2 was added to set free [Ca2+] to the specific values. The assay was started upon addition of ATP at a final concentration of 5 mM, and read in a SpectraMax Plus microplate spectrophotometer and the ATPase activities were fitted using the Hill function.
# BT474 Cells = experiment: In vitro anticancer activity, monolayers (2D) and spheroids (3D), BT474; format: cell-based; details: Homo sapiens
# Experimental: (§1) The anticancer activity of a test compound was determined in vitro using mammalian tumor cells that grew as monolayers and spheroids. Spheroids represent the three-dimensional growth and organization of solid tumors, and thus are an intermediate model between monolayers of cells in culture and tumors in vivo. The cancer cell line tested was a breast cancer cell line, BT474. Normal breast tissue cells (MCF10A) were used as a control. The viability/proliferation of the cells were measured using […]-GLO® reagent.
# MCF10A Cells = experiment: In vitro viability, monolayers (2D) and spheroids (3D), normal breast tissue cells; format: cell-based; details: Homo sapiens, MCF-10A
# Experimental: as §1
# [1] = test system: 6-OHDA lesioned Wistar rats; experiment: Rat unilateral 6-OHDA model of Parkinson's disease, stepping test; format: in vivo; details: D11, 10 mg/kg IP once daily for 15 days, t test
# Experimental: Fifty adult male Wistar rats were used. The rats from different groups (G1 to G5) were randomized. At the beginning of the study, the rats were about 5 weeks old and naive to previous administration of any drug.
# A stereotaxic injection of 6-OHDA (G2 to G5) or saline (G1: sham group) was performed to induce a unilateral dopaminergic lesion on day 0 (D0). Surgery was performed on D0 under ketamine (50 mg/kg) and xylazine (10 mg/kg). The rats of G2 to G5 received a unilateral injection of 6-OHDA (6 μL) in the left substantia nigra pars compacta. Jouve et al., J. Neurosci. 2010, 30, 9919-9928. The rats of the G1 sham group were injected with saline. During surgery, local analgesia was achieved using subcutaneous injections of lidocaine. At the end of surgery, the rats were treated with buprenorphine (0.05 mg/kg, S.C.).
# The stepping test was performed after IT test, both before the 6-OHDA lesion induction on D0 and on D11. Around D−6, the stepping test was performed eight consecutive times for the right paw of each animal to obtain baseline values. On D11, the stepping test was performed one hour after the rats were dosed. Each rat was hold by an experimenter and only one of the two forelimbs was left free to move above a plane surface and the other was held with the paw touching the table. The rats were then to be moved slowly forward by the experimenter. The number of adjusting steps was countered for the right paw. Olsson et al., J. Neurosci. 1995, 15, 3863-3875.
# L-DOPA and benserazide (a peripheric DOPA decarboxylase inhibitor) were prepared together as a single solution containing 0.9% NaCl and 0.1% ascorbic acid.
# All the dosings were given via the IP route, once daily, Sunday excluded.
# CSM14.1 cells = experiment: ER stress cell survival assay (thapsigargin, […]-GLO); format: cell-based; details: dose-response
# Experimental: CSM14.1 cells were maintained in Complete Medium at 32° C.; wherein the Complete Medium contained Dulbecco's modified eagle medium (DMEM) with 10% fetal bovine serum (FSB), 1% L-glutamine, 100 IU/mL penicillin, and 100 μg/mL streptomycin. The cells were recovered from cultures by trypsinization and then seeded in 384 well plates (Greiner #781098) at a concentration of 1,000 cells/well in 20 μL of DMEM Assay Medium, wherein the DMEM Assay Medium contained 2% FBS, 100 IU/mL penicillin, and 100 μg/mL streptomycin. Seeding was performed using a MultiDrop Combi reagent broadcaster. The plates were incubated overnight at 32° C.
# A test compound was prepared by 2-fold serial dilution in 100% DMSO using a BIOMEK® 2000 liquid handler (Beckman Coulter). A dose-response curve containing 10 concentrations of the test compound was obtained. Using a BIOMEK® FX liquid handler (Beckman Coulter), 2.5 μL of the test compound was transferred from the 100% DMSO serial dilution plate to an intermediate plate containing 47.5 μL of DMEM Assay Medium containing 2% FBS, 100 IU/mL penicillin, and 100 μg/mL streptomycin and mixed. To reduce or eliminate the interference from the compound's precipitation, 6 μL of the diluted compound was immediately transferred to the assay plate to achieve a high compound concentration of 100 μM in 99% DMEM Assay Medium and 1% DMSO. After the assay plates were incubated for 2 hrs, 4 μL of 112.5 μM thapsigargin (TG) (DMSO stock diluted into Assay TC Medium) was dispensed into each testing well with a MultiDrop Combi reagent broadcaster for a final concentration of about 15 μM TG. The tissue culture media (4 μL) containing vehicle only was transferred manually to each control cell using a 16 channel electronic pipette. […] High luminescence indicates cell survival.
# Alternatively, a test compound was tested at a single compound concentration (e.g., 2 μM) to determine the effect of the compound on cell survival in comparison with vehicle.
# SERCA [2] = experiment: Activation of SERCA, increase in Vmax (SR type not given); format: biochemical
# [3] = Pharmacokinetics in Sprague Dawley rats (Table 4); format: in vivo; details: rat; for MRT inf: read-out: MRT0-∞
# Excerpt: Compound D1 was formulated in 0.3% DMA/1% SOLUTOL®/98.7% saline. Compound D6 was formulated in 0.5% DMA/1% SOLUTOL®/94.5% 0.01N HCl in saline/4% NaOH (pH 4-5).
# SERCA [4] = experiment: Ca-ATPase assay, microsomal preparations from HEK 293 cells; format: biochemical, human
# Experimental: A Ca-ATPase assay was performed using microsomal preparations from HEK 293 cells at a series of calcium concentrations corresponding to the physiological range, relative to controls. The ATP hydrolysis rate was measured over a range of calcium concentrations in the presence of test compounds using an NADH-linked, enzyme-coupled ATPase assay adapted for 96-well microplates, with Vmax determined by fitting the ATPase calcium-dependence to the Hill function. […] CaCl2 was added to set free [Ca^2+] to the specific values.
# [5] = Pharmacokinetics in Beagle dogs (Table 5); format: in vivo; details: dog, PO (10 mg/kg) vs IV (1 mg/kg), based on AUC0-t
# Experimental: For pharmacokinetic evaluation, 3 male Beagle dogs were intravenously (IV) dosed (1 mg/kg body weight) and 3 male Beagle dogs were orally (PO) dosed (10 mg/kg body weight) with a test compound. Blood (approximately 1.0 mL) was collected via femoral vein into tubes containing K3EDTA anticoagulant at 0, 0.017, 0.083, 0.5, 1, 2, 4, 6, 8, and 24 hours post-dosing. Plasma samples were analyzed by LC-MS/MS. The analytical results were confirmed using quality control samples for intra-assay variation. The accuracy of >66% of the quality control samples was between 80-120% of the known value(s). A standard set of pharmacokinetic parameters were generated from concentration data including Area Under the Curve (AUC0-t and AUC0-inf), elimination half-lives, clearances, volume of distribution and bioavailabilities (based on AUC0-t), maximum plasma concentration (C0; Cmax), and time to reach maximum plasma concentration (Tmax).
# [6] = Sprague Dawley, in vivo, IV (2 mg/kg)
# [7] = Sprague Dawley, in vivo, PO (10 mg/kg)
structure (smiles),measurement,setting,value
"CC(C)Oc1ccc(C(=O)Nc2cccc3cccnc23)cc1 [Compound A11, 4-Isopropoxy-N-(quinolin-8-yl)benzamide]",EC50,"SERCA, cardiac SR",< 20 µM
"CCN(CC)CCNC(=O)c1c(C)[nH]c(/C=C2\C(=O)Nc3ccc(F)cc32)c1C [Sutent, reference compound]",IC50,"BT474 Cells; BT-474, monolayers (2D), read-out: IC50 (2D)",10 µM
same,IC50,"BT474 Cells; BT-474, spheroids (3D), read-out: IC50 (3D)",10 µM
same,IC50,"MCF10A Cells; monolayers (2D), read-out: IC50 (2D)",3 µM
same,IC50,"MCF10A Cells; spheroids (3D), read-out: IC50 (3D)",7 µM
"Cc1ccc2cccc(NC(=O)c3ccc(Br)s3)c2n1 [Compound B1, 5-Bromo-N-(2-methylquinolin-8-yl)thiophene-2-carboxamide]",number of adjusting steps,[1],statistically significant increase
"Cc1ccc2cccc(NC(=O)c3ccc(O)cc3)c2n1 [Compound J2, 4-Hydroxy-N-(2-methylquinolin-8-yl)benzamide]",EC50,CSM14.1 cells,< 20 µM
same,Increase in Vmax at 10 μM,SERCA [2],A′ (A′ represents an increase greater than 50%)
"O=C(c1ccccc1F)N1CCN(c2ccnc3cc(Cl)ccc23)CC1 [Compound D2, (4-(7-Chloroquinolin-4-yl)piperazin-1-yl)(2-fluorophenyl)methanone]",EC50,CSM14.1 cells,< 20 µM
same,AUC(0-inf),[3]; [6],1840 ± 209 ng·h/mL
same,AUC(0-t),[3]; [6],1790 ± 187 ng·h/mL
same,Cmax,[3]; [6],7.59 ± 0.55 µM
same,Tmax,[3]; [6],0.017 h
same,clearance,[3]; [6],18.3 mL/min/kg
same,half-life,[3]; [6],1.77 ± 0.33 h
same,MRT inf,[3]; [6],1.57 ± 0.22 h
same,Vd,"[3]; Sprague Dawley, in vivo, IV (2 mg/kg), read-out: Vz",2.76 ± 0.22 L/kg
same,AUC(0-inf),[3]; [7],8060 ± 3220 ng·h/mL
same,AUC(0-t),[3]; [7],7890 ± 3320 ng·h/mL
same,Cmax,[3]; [7],7.33 ± 12.5 µM
same,Tmax,[3]; [7],0.42 ± 0.14 h
same,half-life,[3]; [7],1.76 ± 0.66 h
same,MRT inf,[3]; [7],2.88 ± 1.21 h
same,F,[3]; PO (10 mg/kg) vs IV (2 mg/kg),88%
"Cc1ccc2cccc(NC(=O)c3cccc(OC(C)C)c3)c2n1 [Compound A13, 3-Isopropoxy-N-(2-methylquinolin-8-yl)benzamide]",Vmax of a SERCA,SERCA [4],significantly increased
same,F,[5],1.4%
"O=C(Nc1cccc2cccnc12)c1cccc(F)c1 [Compound A7, 3-Fluoro-N-(quinolin-8-yl)benzamide]",EC50,"SERCA, cardiac SR",< 20 µM
O=C(C1CC1)N1CCN(c2ccnc3cc(Cl)ccc23)CC1 [Compound D7],EC50,CSM14.1 cells,< 20 µM
